Measured values published in US7569547B2, “Inhibiting furin with polybasic peptides” (Board of Supervisors of Louisiana State University and …, priority 2001, dated 2009).
Entries after “also recorded” stand apart in the source; their conditions may differ. Like-named read-outs stand apart in the source and are kept apart here.

Assays:
PACE4 = target: T1, PACE4 (Rattus norvegicus, UniProt Q63415); assay: PACE4 enzyme assay, hydrolysis of pERTKR-MCA; assay type: biochemical
T1 construct: made in house; host or cells: stably transfected hEK-293 cells (gift of R. E. Mains), conditioned medium
T1 sequence (Q63415 133-937): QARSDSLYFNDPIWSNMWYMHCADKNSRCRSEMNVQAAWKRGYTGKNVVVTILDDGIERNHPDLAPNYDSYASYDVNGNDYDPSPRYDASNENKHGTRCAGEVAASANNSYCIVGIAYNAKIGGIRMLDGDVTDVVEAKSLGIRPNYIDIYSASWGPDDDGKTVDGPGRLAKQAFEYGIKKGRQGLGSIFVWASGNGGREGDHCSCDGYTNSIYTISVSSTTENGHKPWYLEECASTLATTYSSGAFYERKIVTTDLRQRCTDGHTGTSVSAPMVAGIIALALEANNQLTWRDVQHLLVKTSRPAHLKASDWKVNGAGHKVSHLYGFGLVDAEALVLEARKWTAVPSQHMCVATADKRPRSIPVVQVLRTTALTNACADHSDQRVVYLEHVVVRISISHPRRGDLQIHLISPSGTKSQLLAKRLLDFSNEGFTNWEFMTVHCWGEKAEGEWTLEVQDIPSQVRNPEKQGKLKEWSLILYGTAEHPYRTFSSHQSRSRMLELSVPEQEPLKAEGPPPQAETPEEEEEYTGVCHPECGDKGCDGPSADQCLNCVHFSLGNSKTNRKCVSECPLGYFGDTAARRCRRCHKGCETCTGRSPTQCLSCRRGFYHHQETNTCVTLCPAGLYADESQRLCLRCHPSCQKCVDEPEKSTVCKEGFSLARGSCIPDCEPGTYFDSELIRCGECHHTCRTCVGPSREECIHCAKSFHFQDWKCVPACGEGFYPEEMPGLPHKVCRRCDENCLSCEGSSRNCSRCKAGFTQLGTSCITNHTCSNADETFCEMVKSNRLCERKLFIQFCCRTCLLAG
Description: The proprotein convertase PACE4 was partially purified from an overnight-conditioned medium of stably transfected hEK-293 human embryonic kidney cells (a generous gift of R. E. Mains, Johns Hopkins University School of Medicine, Baltimore, Md.). Briefly, 100 mL of conditioned medium (OptiMEM containing 100 μg/mL aprotinin) was loaded onto an Econo-Pac Q (Bio-Rad) column at 4 mL/min, washed with 10 mL of buffer A, and then eluted with a linear gradient of buffer A containing 500 mM NaCl over 50 mL. The active fractions were then diluted 1:4 with buffer A prior to loading onto a Mono Q column (Pharmacia) at 1 mL/min. The PACE4 was eluted with a linear gradient of buffer A containing 500 mM NaCl over 10 mL. The resulting active fractions were then pooled and stored at −80° C. until use.
(§1) Enzyme Assays and Hexapeptide Library Screening. Enzyme assays for PC1 and PC2 were performed at pH 5.0 using pERTKR-MCA (Peptides International Inc., Louisville, Ky.) as described in E. Apletalina et al., J. Biol. Chem., vol. 273, pp. 26589-26595 (1998). The assay for furin was performed using the same substrate at pH 7.0 in 100 mM HEPES, 5 mM CaCl2, 0.1% Brij 35. All assays were performed at 37° C. in a 96 well fluorometer (Labsystems) at an excitation wavelength of 380 nm with emission monitored at a wavelength of 460 nm. The total volume was 50 μL. Unless otherwise stated, the final substrate concentration for all assays was 200 μM. When used in a particular experiment, the inhibitory peptides were pre-incubated with enzyme for 30 min at room temperature prior to addition of substrate. All assays were performed in duplicate or triplicate.

HEK293 cells = assay: Growth of HEK293 cells monitored with the dye WST (cytotoxicity); assay type: cell-based, human
Description: HEK293 cells were seeded into 96-well plates at the densities indicated. Their growth rates were monitored using the dye WST, which is cleaved by mitochondrial dehydrogenases to a […] dye only in viable cells.

PC2 [1] = target: T2, PC2 (Mus musculus, UniProt P21661); assay: PC2 enzyme assay, hydrolysis of pERTKR-MCA at pH 5.0; assay type: biochemical; parameters: made in house; conditions: data not shown
T2 sequence (P21661 109-637): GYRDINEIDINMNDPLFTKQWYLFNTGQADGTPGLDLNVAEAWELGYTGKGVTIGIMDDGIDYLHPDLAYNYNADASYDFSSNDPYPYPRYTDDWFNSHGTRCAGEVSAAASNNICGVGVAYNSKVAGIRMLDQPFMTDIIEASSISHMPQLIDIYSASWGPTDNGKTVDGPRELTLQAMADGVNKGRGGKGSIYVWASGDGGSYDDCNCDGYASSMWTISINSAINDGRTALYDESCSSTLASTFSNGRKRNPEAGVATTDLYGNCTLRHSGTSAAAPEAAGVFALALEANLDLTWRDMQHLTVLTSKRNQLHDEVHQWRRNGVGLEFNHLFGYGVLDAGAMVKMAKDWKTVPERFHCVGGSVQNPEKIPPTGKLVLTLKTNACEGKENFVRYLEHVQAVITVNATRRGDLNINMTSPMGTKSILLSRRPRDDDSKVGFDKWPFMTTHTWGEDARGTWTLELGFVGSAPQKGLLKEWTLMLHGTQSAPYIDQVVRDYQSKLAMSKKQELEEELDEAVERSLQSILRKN
Description: The proprotein convertases PC1 and PC2 were prepared by ion exchange chromatography as described in G. Frenette et al., Biochim. Biophys. Acta., vol. 1334, pp. 109-115 (1997).
as §1

PC2 [2] = target: T2, PC2

N=C(N)NCCC[C@@H](NC(=O)[C@H](N)CCCN=C(N)N)C(=O)N[C@H](CCCNC(=N)N)C(=O)N[C@H](CCCNC(=N)N)C(=O)N[C@H](CCCNC(=N)N)C(=O)N[C@H](CCCN=C(N)N)C(=O)O [Hexa-D-arginine]
Ki (PACE4; polyarginine peptides, mean ± S.D., three experiments, read-out: Ki PACE4): 580 ± 40 nM
mean absorbance at 450 nm (WST) (HEK293 cells; HEK293, 2 μM D6R, 51 hour): 0.69 ± 0.02
mean absorbance at 450 nm (WST) (HEK293 cells; HEK293, 2 μM D6R, 75 hour): 1.25 ± 0.11
mean absorbance at 450 nm (WST) (HEK293 cells; HEK293, 2 μM D6R, 99 hour): 1.42 ± 0.02
mean absorbance at 450 nm (WST) (HEK293 cells; HEK293, 4 μM D6R, 51 hour): 0.64 ± 0.03
mean absorbance at 450 nm (WST) (HEK293 cells; HEK293, 4 μM D6R, 75 hour): 1.28 ± 0.14
mean absorbance at 450 nm (WST) (HEK293 cells; HEK293, 4 μM D6R, 99 hour): 1.39 ± 0.06
mean absorbance at 450 nm (WST) (HEK293 cells; HEK293, 6 μM D6R, 51 hour): 0.63 ± 0.04
mean absorbance at 450 nm (WST) (HEK293 cells; HEK293, 6 μM D6R, 75 hour): 1.13 ± 0.14
mean absorbance at 450 nm (WST) (HEK293 cells; HEK293, 6 μM D6R, 99 hour): 1.48 ± 0.04
mean absorbance at 450 nm (WST) (HEK293 cells; HEK293, 8 μM D6R, 51 hour): 0.67 ± 0.01
mean absorbance at 450 nm (WST) (HEK293 cells; HEK293, 8 μM D6R, 75 hour): 1.36 ± 0.08
mean absorbance at 450 nm (WST) (HEK293 cells; HEK293, 8 μM D6R, 99 hour): 1.40 ± 0.05
mean absorbance at 450 nm (WST) (HEK293 cells; HEK293, 10 μM D6R, 51 hour): 0.64 ± 0.03
mean absorbance at 450 nm (WST) (HEK293 cells; HEK293, 10 μM D6R, 75 hour): 1.28 ± 0.14
mean absorbance at 450 nm (WST) (HEK293 cells; HEK293, 10 μM D6R, 99 hour): 1.49 ± 0.08
mean absorbance at 450 nm (WST) (HEK293 cells; HEK293, 30 μM D6R, 51 hour): 0.64 ± 0.02
mean absorbance at 450 nm (WST) (HEK293 cells; HEK293, 30 μM D6R, 75 hour): 1.29 ± 0.08
mean absorbance at 450 nm (WST) (HEK293 cells; HEK293, 30 μM D6R, 99 hour): 1.45 ± 0.06
mean absorbance at 450 nm (WST) (HEK293 cells; HEK293, 60 μM D6R, 51 hour): 0.66 ± 0.05
mean absorbance at 450 nm (WST) (HEK293 cells; HEK293, 60 μM D6R, 75 hour): 1.17 ± 0.08
mean absorbance at 450 nm (WST) (HEK293 cells; HEK293, 60 μM D6R, 99 hour): 1.48 ± 0.06
mean absorbance at 450 nm (WST) (HEK293 cells; HEK293, 100 μM D6R, 51 hour): 0.62 ± 0.03
mean absorbance at 450 nm (WST) (HEK293 cells; HEK293, 100 μM D6R, 75 hour): 1.19 ± 0.11
mean absorbance at 450 nm (WST) (HEK293 cells; HEK293, 100 μM D6R, 99 hour): 1.47 ± 0.09
effect on growth of the cells (HEK293 cells; HEK293 cells, 2-100 μM): did not significantly affect the growth of the cells
cytotoxicity (HEK293 cells; HEK293 cells, up to 100 μM final concentration, preliminary data, listed as D6R): not toxic to cells; also recorded: did not appear to be cytotoxic
effect on PC2 activity (PC2 [1]): no stimulatory or inhibitory effect

N=C(N)NCCC[C@H](NC(=O)[C@H](CCCNC(=N)N)NC(=O)[C@H](CCCNC(=N)N)NC(=O)[C@H](CCCNC(=N)N)NC(=O)[C@H](CCCNC(=N)N)NC(=O)[C@@H](N)CCCNC(=N)N)C(=O)O [Hexa-L-arginine]
Ki (PACE4): 520 ± 45 nM
effect on PC2 activity (PC2 [1]): Stimulates PC2 Activity

N=C(N)NCCC[C@H](NC(=O)[C@H](CCCNC(=N)N)NC(=O)[C@H](CCCNC(=N)N)NC(=O)[C@H](CCCNC(=N)N)NC(=O)[C@H](CCCNC(=N)N)NC(=O)[C@H](CCCNC(=N)N)NC(=O)[C@H](CCCNC(=N)N)NC(=O)[C@H](CCCNC(=N)N)NC(=O)[C@@H](N)CCCNC(=N)N)C(=O)O [Nona-L-arginine]
Ki (PACE4): 110 ± 13 nM
cleavage by PC2 (PC2 [2]): essentially no cleavage
